Source: patent publication EP1247803A2, “Indolinone compounds suitable for modulation of protein kinases” (Sugen, Inc., priority 1996, dated 1998)

Target: T1, FLK-1 receptor (Mus musculus, UniProt P35918)
T1 construct: expressed in transfected cells; host or cells: NIH3T3 C7#3
Test: FLK-1 ELISA (kinase activity of the FLK-1 receptor in FLK-1/NIH3T3 cells, VEGF stimulated)
Assay type: cell-based
Procedure, shortened: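 An ELISA using affinity-purified rabbit anti-FLK-1 antiserum on anti-rabbit IgG-coated plates measured VEGF-stimulated FLK-1 kinase activity. NIH3T3 C7#3 cells carrying FLK-1 were serum-starved (0.1% FBS) overnight, then exposed to compound (final 1:200 dilution, 0.5% DMSO) for two hours at 37 °C.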

T1 sequence (P35918 20-1345): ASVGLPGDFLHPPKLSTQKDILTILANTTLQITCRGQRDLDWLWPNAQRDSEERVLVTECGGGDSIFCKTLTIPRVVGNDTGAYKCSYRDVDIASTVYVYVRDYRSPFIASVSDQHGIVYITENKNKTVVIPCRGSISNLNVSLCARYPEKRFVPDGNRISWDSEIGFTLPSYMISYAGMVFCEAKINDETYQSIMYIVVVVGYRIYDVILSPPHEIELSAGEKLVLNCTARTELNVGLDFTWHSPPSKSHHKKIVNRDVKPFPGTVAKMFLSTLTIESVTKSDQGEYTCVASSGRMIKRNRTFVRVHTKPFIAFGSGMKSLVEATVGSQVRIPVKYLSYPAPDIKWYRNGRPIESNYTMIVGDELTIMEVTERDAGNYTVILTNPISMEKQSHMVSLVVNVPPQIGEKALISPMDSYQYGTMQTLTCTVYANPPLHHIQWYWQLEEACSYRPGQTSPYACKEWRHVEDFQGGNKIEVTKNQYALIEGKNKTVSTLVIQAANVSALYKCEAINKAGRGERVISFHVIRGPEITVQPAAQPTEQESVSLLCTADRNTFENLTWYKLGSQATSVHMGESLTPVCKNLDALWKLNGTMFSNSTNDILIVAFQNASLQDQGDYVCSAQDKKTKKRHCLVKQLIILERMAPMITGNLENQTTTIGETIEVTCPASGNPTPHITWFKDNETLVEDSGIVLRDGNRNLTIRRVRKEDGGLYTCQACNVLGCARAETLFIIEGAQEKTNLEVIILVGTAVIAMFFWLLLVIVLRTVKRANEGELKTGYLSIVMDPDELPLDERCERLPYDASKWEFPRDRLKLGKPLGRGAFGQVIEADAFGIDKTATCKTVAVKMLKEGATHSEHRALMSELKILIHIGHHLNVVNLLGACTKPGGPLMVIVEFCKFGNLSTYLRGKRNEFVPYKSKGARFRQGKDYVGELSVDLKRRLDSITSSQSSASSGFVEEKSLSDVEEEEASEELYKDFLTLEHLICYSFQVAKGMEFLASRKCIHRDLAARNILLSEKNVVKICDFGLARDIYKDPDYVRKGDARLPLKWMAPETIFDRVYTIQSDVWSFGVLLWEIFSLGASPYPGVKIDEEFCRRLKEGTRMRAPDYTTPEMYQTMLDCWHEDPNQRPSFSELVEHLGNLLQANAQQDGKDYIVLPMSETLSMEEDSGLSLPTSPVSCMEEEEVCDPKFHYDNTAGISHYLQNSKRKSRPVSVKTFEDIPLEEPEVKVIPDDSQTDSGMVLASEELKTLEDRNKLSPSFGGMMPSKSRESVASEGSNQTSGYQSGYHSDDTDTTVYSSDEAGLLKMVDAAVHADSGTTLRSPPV

Row | Structure (SMILES) | Fik Kinase %Inhibition
1 | Cc1ccc(C=C2C(=O)Nc3ccc(Br)c(C)c32)s1 [10717/C07] | 1.6%
2 | Cc1[nH]c(C=C2C(=O)Nc3ccc(Br)c(C)c32)c(Br)c1Br [10717/C11] | 4.6%
3 | CNS(=O)(=O)c1ccc2c(c1)C(=Cc1ccc(Cl)s1)C(=O)N2 [10721/D07] | 6.4%
4 | O=C1Nc2ccc(CCCl)cc2C1=Cc1c(F)cc(F)cc1F [10720/G02] | 5.0%
5 | CNS(=O)(=O)c1ccc2c(c1)C(=Cc1ccc(OC)c(OC)c1)C(=O)N2 [10720/D04] | 15.6%
6 | Cc1c(Br)ccc2c1C(=Cc1ccc[nH]1)C(=O)N2 [10717/C09] | 77.1%
7 | Cc1c(Br)ccc2c1C(=Cc1cccn1C)C(=O)N2 [10717/C04] | -0.8%
8 | Cc1cc(C)c(C=C2C(=O)Nc3c(Br)cc(Br)cc32)[nH]1 [10721/A08] | 4.8%
9 | COc1ccc(O)c(C=C2C(=O)Nc3ccc(S(=O)(=O)Nc4ccc(C(F)(F)F)cc4)cc32)c1 [10720/E10] | -4.1%
10 | Cc1c(Br)ccc2c1C(=Cc1ccc(Cl)s1)C(=O)N2 [10721/C07] | 10.9%
11 | O=C1Nc2ccc(S(=O)(=O)Nc3ccc(C(F)(F)F)cc3)cc2C1=Cc1ccccc1O [10720/E05] | -13.8%
12 | CNS(=O)(=O)c1ccc2c(c1)C(=Cc1cc(C)c(C)s1)C(=O)N2 [10721/D04] | 15.2%
13 | COc1cc(O)ccc1C=C1C(=O)Nc2ccc(CCCl)cc21 [10720/G03] | 2.6%
14 | CC(C)(C)c1cc(C=C2C(=O)Nc3ccc(I)cc32)ccc1O [10721/B09] | 9.0%
15 | O=C1Nc2ccc(CCCl)cc2C1=Cc1ccccc1 [10720/G06] | -3.4%
16 | CCOc1cc(C=C2C(=O)Nc3ccc(CCCl)cc32)ccc1O [10720/G09] | 2.1%
17 | CNS(=O)(=O)c1ccc2c(c1)C(=Cc1ccccc1O)C(=O)N2 [10720/D05] | 4.8%
18 | O=C1Nc2ccc(S(=O)(=O)Nc3ccc(C(F)(F)F)cc3)cc2C1=Cc1ncc[nH]1 [10720/E11] | 9.3%
19 | CNS(=O)(=O)c1ccc2c(c1)C(=Cc1cc3c([nH]1)CCCC3)C(=O)N2 [10721/D05] | -25.1%
20 | Cc1c(Br)ccc2c1C(=Cc1c[nH]c3ccccc13)C(=O)N2 [10717/C06] | 7.6%
21 | COc1cc(O)ccc1C=C1C(=O)Nc2ccc(S(=O)(=O)N3CCOCC3)cc21 [10720/F03] | 10.6%
22 | CC(C)(C)c1cc(C=C2C(=O)Nc3c(Br)cc(Br)cc32)cc(Br)c1O [10721/A10] | 5.2%
23 | Cc1cc(C)c(C=C2C(=O)Nc3ccc(I)cc32)[nH]1 [10721/B08] | 18.5%
24 | O=C1Nc2ccc(S(=O)(=O)N3CCOCC3)cc2C1=Cc1ccccc1O [10720/F05] | -3.6%
25 | CC(C)(C)c1cc(C=C2C(=O)Nc3c(Br)cc(Br)cc32)cc(C(C)(C)C)c1O [10721/A11] | 4.8%
26 | Cn1c(C=C2C(=O)Nc3c(Br)cc(Br)cc32)nc2ccccc21 [10721/A02] | 10.6%
27 | CNS(=O)(=O)c1ccc2c(c1)C(=Cc1nn(C)cc1Cl)C(=O)N2 [10721/D03] | 17.8%

Row | Structure (SMILES) | Fik Kinase %Inhibition
28 | O=C1Nc2ccc(S(=O)(=O)N3CCOCC3)cc2C1=Cc1c(F)cc(F)cc1F [10720/F02] | 9.1%
29 | CNS(=O)(=O)c1ccc2c(c1)C(=Cc1cc([N+](=O)[O-])cc(CCl)c1O)C(=O)N2 [10721/D06] | 1.6%
30 | Cc1c(Br)ccc2c1C(=Cc1cc([N+](=O)[O-])cc(CCl)c1O)C(=O)N2 [10721/C06] | 14.4%
31 | CSc1ccc(C=C2C(=O)Nc3ccc(CCCl)cc32)s1 [10720/G07] | 5.1%
32 | Cc1cc(O)cc(O)c1C=C1C(=O)Nc2ccc(S(=O)(=O)N3CCOCC3)cc21 [10720/F08] | -4.1%
33 | Cc1c(Br)ccc2c1C(=Cc1ccc(O)c(C(C)(C)C)c1)C(=O)N2 [10721/C09] | 17.5%
34 | CNS(=O)(=O)c1ccc2c(c1)C(=Cc1nc3ccccc3n1C)C(=O)N2 [10721/D02] | 15.1%
35 | Cc1cc(O)cc(O)c1C=C1C(=O)Nc2ccc(S(=O)(=O)Nc3ccc(C(F)(F)F)cc3)cc21 [10720/E08] | 2.5%
36 | CCOc1cc(C=C2C(=O)Nc3ccc(S(=O)(=O)Nc4ccc(C(F)(F)F)cc4)cc32)ccc1O [10720/E09] | 11.5%
37 | CSc1ccc(C=C2C(=O)Nc3ccc(S(=O)(=O)N4CCOCC4)cc32)s1 [10720/F07] | 4.6%
38 | COc1cccc(O)c1C=C1C(=O)Nc2ccc(Br)c(C)c21 [10717/C10] | -8.0%
39 | O=C1Nc2ccc(S(=O)(=O)Nc3ccc(C(F)(F)F)cc3)cc2C1=Cc1ccccc1 [10720/E06] | 25.5%
40 | COc1ccc(C=C2C(=O)Nc3ccc(S(=O)(=O)N4CCOCC4)cc32)cc1OC [10720/F04] | 10.6%
41 | Cc1cc(O)cc(O)c1C=C1C(=O)Nc2ccc(CCCl)cc21 [10720/G08] | -17.9%
42 | Cc1c(Br)ccc2c1C(=Cc1cc(C(C)(C)C)c(O)c(C(C)(C)C)c1)C(=O)N2 [10721/C11] | 13.9%
43 | O=C1Nc2ccc(S(=O)(=O)Nc3ccc(C(F)(F)F)cc3)cc2C1=Cc1c(F)cc(F)cc1F [10720/E02] | 5.7%
44 | CC(C)(C)c1cc(C=C2C(=O)Nc3c(Br)cc(Br)cc32)ccc1O [10721/A09] | 10.9%
45 | CC(C)(C)c1cc(C=C2C(=O)Nc3ccc(I)cc32)cc(C(C)(C)C)c1O [10721/B11] | -2.1%
46 | CNS(=O)(=O)c1ccc2c(c1)C(=Cc1ccccc1)C(=O)N2 [10720/D06] | 10.1%
47 | Cc1c(Br)ccc2c1C(=Cc1cc(Br)c(O)c(C(C)(C)C)c1)C(=O)N2 [10721/C10] | 21.1%
48 | COc1ccc(C=C2C(=O)Nc3ccc(CCCl)cc32)cc1OC [10720/G04] | 2.4%
49 | CCOc1cc(C=C2C(=O)Nc3ccc(S(=O)(=O)N4CCOCC4)cc32)ccc1O [10720/F09] | 5.9%
50 | COc1ccc(O)c(C=C2C(=O)Nc3ccc(CCCl)cc32)c1 [10720/G10] | -36.6%
51 | Cc1c(Br)ccc2c1C(=Cc1ccc(Br)cc1)C(=O)N2 [10717/C08] | 7.0%
52 | Cc1c(Br)ccc2c1C(=Cc1nc3ccccc3n1C)C(=O)N2 [10721/C02] | 9.7%
53 | CNS(=O)(=O)c1ccc2c(c1)C(=Cc1ccc(O)c(C(C)(C)C)c1)C(=O)N2 [10721/D09] | 17.6%
